≈ marks a conversion by molar mass, not a printed value. Where only a bound is given, the exact number is not on record here.

Data set [1] can be described thus: Solubility of the compound in 0.01 M HCl at pH 2. The format is physicochemical.
Data set [2] can be described thus: Solubility of the compound in phosphate buffer at pH 6.5 by nephlometric analysis. The class given is physicochemical.
Data set [3] has as its system Rattus norvegicus. The data set is described as follows: AUC (0 to infinity) in Sprague-Dawley rat at 19 mg/kg, po. The class given is ADME, organism-based, Plasma. Also noted: time infinity, dose 19 mg/kg, route oral. The note with it: in vivo.
For data set [4], the system named is Rattus norvegicus. The data set is described as follows: Tmax in Sprague-Dawley rat at 19 mg/kg, po. The class given is ADME, organism-based. Also noted: dose 19 mg/kg, route oral. The following applies: in vivo.
The nature of data set [5]: Volume of distribution at steady state in Sprague-Dawley rat blood at 4 mg/kg, iv. The class given is ADME, organism-based. Also noted: dose 4 mg/kg, route intravenous. The note with it: read-out: Vdss.
Data set [6] is described as follows: Oral bioavailability in Sprague-Dawley rat at 19 mg/kg. The note with it: in vivo. The format is ADME, organism-based.
Data set [7] is described as follows: Volume of distribution at steady state in Sprague-Dawley rat plasma at 4 mg/kg, iv. The note with it: read-out: Vdss. Also noted: dose 4 mg/kg, route intravenous. The format is ADME, organism-based.
A further data set is described as follows: physchem. The note with it: octanol/water, pH 7.4.
Data set [8] can be described thus: AUC (0 to infinity) in Sprague-Dawley rat at 4 mg/kg, iv. The format is ADME, organism-based. Also noted: dose 4 mg/kg, route intravenous, time infinity. The note with it: plasma.
The test system of data set [9] is Rattus norvegicus. The data set is described as follows: Cmax in Sprague-Dawley rat at 19 mg/kg, po. The class given is ADME, organism-based. Also noted: dose 19 mg/kg, route oral. The note with it: in vivo.
The nature of data set [10]: Solubility of the compound in phosphate buffer at pH 6.5 by HPLC-DAD-MS analysis. The format is physicochemical.
The nature of data set [11]: Plasma concentration in Swiss outbred mouse infected with Plasmodium berghei at 50 mg/kg, po measured at 4 hrs. The class given is ADME, organism-based. Also noted: dose 50 mg/kg, route oral.
Data set [12] can be described thus: Plasma concentration in Swiss outbred mouse infected with Plasmodium berghei at 50 mg/kg, po measured at 1 hr. The class given is ADME, organism-based. Also noted: dose 50 mg/kg, route oral.
Data set [13] in a line: Plasma concentration in Swiss outbred mouse infected with Plasmodium berghei at 50 mg/kg, po measured at 24 hrs. The format is ADME, organism-based. Also noted: dose 50 mg/kg, route oral.

In data set [1], `CNc1nc(NCCCN(C)C)c2sc(-c3ccccc3)cc2n1` gave a solubility of more than 100 µg/mL. Besides, in data set [2], the kinetic solubility was more than 100 µg/mL. The AUC in the data set on Rattus norvegicus [3] is 125 µM·min. In addition, the time to peak (Tmax) in the data set on Rattus norvegicus [4] worked out at 1.75 h. Also, the results for the Vd in data set [5] and in [7] were 37 L/kg and 139 L/kg, respectively. In data set [6], this compound displayed a bioavailability of 34%. In addition, the chromatographic logD in “physchem” is 2.2. This compound had a total exposure AUC(0-inf) in [8] of 1.28 µM·h. The peak level in the data set on Rattus norvegicus [9] (Cmax) was 8 nM.
Compound `CNc1nc(NCCCN(C)C)c2sc(-c3ccc(N4CCOCC4)cc3)cc2n1` gave a solubility in data set [1] of 12.5 µg/mL (≈ 29.3 µM). In data set [2], the kinetic solubility amounted to 12.5 µg/mL (≈ 29.3 µM). In addition, in the data set “physchem”, the chromatographic logD was 3.
For the compound `CNc1nc(NCCCN(C)C)c2sc(-c3ccc(C(F)(F)F)nc3)cc2n1`, the solubility in data set [1] is more than 100 µg/mL. Moreover, in [2], the solubility (kinetic) turned out to be 12.5 µg/mL (≈ 30.5 µM). This compound also displayed a chromatographic logD in the data set “physchem” of 3.
`CNc1nc(NCCCN(C)C)c2sc(-c3ccc(-n4cccn4)cc3)cc2n1`: the results for the solubility in data set [1] and in [10] were 217 µg/mL (≈ 532 µM) and 191 µg/mL (≈ 469 µM), respectively.
Turning to `CNc1nc(NCCCN(C)C)c2sc(-c3cc(C(F)(F)F)cc(C(F)(F)F)c3)cc2n1`, the values for the solubility in data set [1] and in data set [10] were 186 µg/mL (≈ 390 µM) and 130 µg/mL (≈ 272 µM), respectively.
`CNc1nc(NCCCN(C)C)c2sc(-c3ccc(S(C)(=O)=O)cc3)cc2n1`: in data set [1], the solubility was more than 100 µg/mL. For the same compound, the solubility (kinetic) in data set [2] was 25 µg/mL (≈ 59.6 µM). The compound also displayed a chromatographic logD in the data set “physchem” of 2.1.
Take `CNc1nc(NCCCN(C)C)c2sc(-c3cccc(C(F)(F)F)c3)cc2n1`: the solubility in [1] amounted to 180 µg/mL (≈ 440 µM); in data set [10] it was 160 µg/mL (≈ 391 µM).
For the compound `CNc1nc(NCCCN(C)C)c2sc(-c3cccc(OC(F)(F)F)c3)cc2n1`, in [1], the solubility is more than 100 µg/mL. The kinetic solubility in data set [2] is more than 100 µg/mL. The compound also yielded a chromatographic logD in “physchem” of 4.3.
Take `CNc1nc(NCCCN(C)C)c2sc(-c3ccc4nonc4c3)cc2n1`: the solubility in data set [1] is more than 100 µg/mL. The same compound gave a solubility (kinetic) in [2] of 25 µg/mL (≈ 65.2 µM). Besides, in the data set “physchem”, the chromatographic logD is 3.3.
`CNc1nc(NCCCN(C)C)c2sc(-c3ccc(F)cc3)cc2n1` displayed a concentration at 4 h in [11] of 90 nM. The concentration at 1 h in data set [12] is 140 nM. Also, the concentration at 24 h in data set [13] was determined as 40 nM.
Regarding `CNc1nc(NCCCN(C)C)c2sc(-c3ccc(C(=O)N4CCOCC4)cc3)cc2n1`, the solubility in data set [1] is more than 100 µg/mL. Moreover, the solubility (kinetic) in [2] worked out at 25 µg/mL (≈ 55 µM). This compound came in with a chromatographic logD in “physchem” of 2.2.
`CNc1nc(NCCCN(C)C)c2sc(-c3ccc(C(C)=O)cc3)cc2n1` returned a solubility in data set [1] of more than 100 µg/mL. Further, in [2], the kinetic solubility was 12.5 µg/mL (≈ 32.6 µM). In “physchem”, this compound had a chromatographic logD of 2.9.
`CNc1nc(NCCCN(C)C)c2sc(-c3ccc(OC(F)(F)F)cc3)cc2n1` registered a solubility in [1] of more than 100 µg/mL. The compound further came in with a solubility (kinetic) in data set [2] of more than 100 µg/mL. Further, the chromatographic logD in the data set “physchem” is 4.6.
The compound `CNc1nc(NCCCN(C)C)c2sc(-c3ccc(C#N)cc3)cc2n1` came in with a solubility in data set [1] of more than 100 µg/mL. Moreover, the kinetic solubility in data set [2] worked out at 50 µg/mL (≈ 136 µM).
Consider `CNc1nc(NCCCN(C)C)c2sc(-c3ccc(N4CCNCC4)cc3)cc2n1`, for which the solubility in data set [1] was more than 100 µg/mL. The kinetic solubility in [2] came to 12.5 µg/mL (≈ 29.4 µM). The chromatographic logD in the data set “physchem” turned out to be 3.5.
`CNc1nc(NCCCN(C)C)c2sc(-c3ccc(C(F)(F)F)cc3Cl)cc2n1` returned a solubility in data set [1] of more than 100 µg/mL. For the same compound, the solubility (kinetic) in [2] is more than 100 µg/mL. Besides, the chromatographic logD in the data set “physchem” is 4.5.
In data set [1], `CNc1nc(NCCCN(C)C)c2sc(-c3ccc(OC)nc3)cc2n1` returned a solubility of more than 100 µg/mL. In data set [2], the kinetic solubility came to 25 µg/mL (≈ 67.1 µM). This compound also yielded a chromatographic logD in the data set “physchem” of 2.8.
For `CNc1nc(NCCCN(C)C)c2sc(-c3cccc(C#N)c3)cc2n1` the same measures were more than 100 µg/mL, 25 µg/mL (≈ 68.2 µM) and 2.9.
Regarding `CNc1nc(NCCCN(C)C)c2sc(-c3ccoc3)cc2n1`, the solubility turned out to be 221 µg/mL (≈ 667 µM) in [1] and 203 µg/mL (≈ 612 µM) in data set [10].
As to `CNc1nc(NCCCN(C)C)c2sc(-c3ccc(N)cc3)cc2n1`, the solubility in data set [1] was more than 100 µg/mL. In data set [2], this compound registered a kinetic solubility of 12.5 µg/mL (≈ 35.1 µM). In “physchem”, the chromatographic logD was found to be 2.3.
Regarding `CNc1nc(NCCCN(C)C)c2sc(-c3cncnc3)cc2n1`, the solubility in data set [1] amounted to 214 µg/mL (≈ 623 µM); in [10], 194 µg/mL (≈ 565 µM).
With `CNc1nc(NCCCN(C)C)c2sc(-c3ccc(C(F)(F)F)cc3)cc2n1`, the concentration at 4 h in data set [11] was 220 nM. In addition, the solubility in data set [1] was found to be 240 µg/mL (≈ 586 µM); in data set [10] it was 177 µg/mL (≈ 432 µM). This compound registered a concentration at 1 h in [12] of 410 nM. Also, in data set [13], the concentration at 24 h stood at 210 nM. This compound also came in with a chromatographic logD in the data set “physchem” of 4.1.
Consider `CNc1nc(NCCCN(C)C)c2sc(-c3ccc(NS(C)(=O)=O)cc3)cc2n1`, for which the solubility in data set [1] was more than 100 µg/mL. Further, the kinetic solubility in data set [2] was 25 µg/mL (≈ 57.5 µM). Besides, the chromatographic logD in “physchem” is 2.1.
On to `CNc1nc(NCCCN(C)C)c2cc(-c3ccccc3)sc2n1`, for which the solubility turned out to be 216 µg/mL (≈ 633 µM) in [1] and 184 µg/mL (≈ 539 µM) in data set [10].
`CNc1nc(NCCCN(C)C)c2oc(-c3ccccc3)cc2n1`: the solubility worked out at 214 µg/mL (≈ 658 µM) in [1] and 203 µg/mL (≈ 624 µM) in data set [10].
